Where “and” joins values, the source holds several entries; their conditions need not be identical. Identical values can stand only once.
Legend:
MH134 hepatoma [1] = details: MH134 hepatoma in C3H/He; prior-art statement; cited from earlier work
Hartley guinea pigs = assay: Adjuvant activity on the induction of delayed-type hypersensitivity to ABA-Tyr (skin test); type: in vivo, guinea pig; details: with 50 μg ABA-Tyr in Freund's incomplete adjuvant, four footpads, skin test two weeks later, mm ± SE
Protocol: Adjuvant activity of the object compound on the induction of delayed-type hypersensitivity to ABA-Tyr.
Hartley guinea pigs were immunized into four footpads with 50 μg of N-acetyl-L-tyrosine-3-azobenzene-4'-arsonic acid (ABA-Tyr) in Freund's incomplete adjuvant with a test material dissolved or suspended in phosphate buffered saline. Control groups were immunized with ABA-Tyr alone in Freund's incomplete adjuvant.
Two weeks later, skin test with 100 μg of ABA-bacterial α-amylose (ABA-BαA) dissolved in saline was made and skin reaction was measured 24 hours after intradermal injection of test antigen.

[2] = test system: mastocytoma P815-X2 cells; assay: Adjuvant activity on the induction of cell-mediated cytotoxic cells in the spleen of allogenic mice (Brunner's method); type: in vivo, C57BL/6J mice; details: phosphate buffered saline suspension, eleven days after
Protocol: Adjuvant activity on the induction of cell-mediated cytotoxic cells in the spleen of allogenic mice (C57BL/6J).
Three or four mice of C57BL/6J in each group were immunized intraperitoneally with a mixture of mastocytoma P815-X2 cells (1 × 10^4) and a test material dissolved or suspended in phosphate buffered saline. Control group was immunized with mastocytoma P815-X2 cells alone.
Eleven days after, cell-mediated cytotoxicity was determined by Brunner's method (Immunology 18, 501-515 1970).

MH134 hepatoma [3] = assay: Antitumor activity on the suppression of MH-134 hepatoma; type: in vivo, C3H/He mice; details: intradermal, A = mice with tumor growth completely suppressed, B = tested mice
Protocol: Antitumor activity on the suppression of MH-134 hepatoma in C3H/He mice
The antitumor activity of the compounds of this invention was examined by using MH134 hepatoma in syngeneic C3H/He mice. A mixture of tumor cells of MH134 (1 × 10^5) and materials (100 or 20 μg) dissolved or suspended in phosphate buffered saline and transplanted intradermally into C3H/He mice and the tumor growth was measured in inoculated sites.

ovalmin protein antigen = details: increased serum antibody levels and induction of delayed-type hypersensitivity; prior-art statement; cited from earlier work
melanoma B16 = melanoma B16 in C57BL/6J; prior-art statement; cited from earlier work
[4] = test system: mastocytoma P815-X2 cells; details: immunization with allogeneic antigen, mastocytoma P815-X2 cell in vivo; prior-art statement; cited from earlier work
[5] = dose 100 μg/mice i.p. with P815-X2 cells (1 × 10^4)
[6] = dose 20 μg mixed with MH134 cells (1 × 10^5)
[7] = dose 100 μg mixed with MH134 cells (1 × 10^5)
[8] = dose 10 μg/mice i.p. with P815-X2 cells (1 × 10^4)

Compound | antitumor activity on syngeneic mouse tumor system (MH134 hepatoma [1]) | Skin reaction with 100μg of ABA-BαA at 24 hrs. (Hartley guinea pigs; dose 100 μg) [mm] | Specific Target Cell Lysis [2, 5] [%] | Antitumor Activity A/B Tumor Growth (MH134 hepatoma [3]; [6]) | Antitumor Activity A/B Tumor Growth (MH134 hepatoma [3]; [7]) | immunoadjuvant activity (ovalmin protein antigen) | antitumor activity on syngeneic mouse tumor system (melanoma B16) | adjuvant activity in the generation of cell-mediated cytotoxic effector cells on the spleen [4] | Skin reaction with 100μg of ABA-BαA at 24 hrs. (Hartley guinea pigs; dose 50 μg) | Skin reaction with 100μg of ABA-BαA at 24 hrs. (Hartley guinea pigs; dose 500 μg) | Specific Target Cell Lysis [2, 8] [%] | Skin reaction with 100μg of ABA-BαA at 24 hrs. (Hartley guinea pigs; dose 40 μg) [mm] | Skin reaction with 100μg of ABA-BαA at 24 hrs. (Hartley guinea pigs; dose 400 μg) [mm] | Skin reaction with 100μg of ABA-BαA at 24 hrs. (Hartley guinea pigs; dose 30 μg) [mm] | Skin reaction with 100μg of ABA-BαA at 24 hrs. (Hartley guinea pigs; dose 300 μg) [mm]
CCCCCCCCCCCCCCCCCC(=O)OCC1OC(O)C(NC(C)=O)C(OC(C)C(=O)NC(C)C(=O)NC(CCC(=O)O)C(N)=O)C1O (stereo not drawn) [Stearoyl-muramyldipeptide, 6-O-stearoyl-muramyldipeptide, reference compound] | no antitumor activity | 17.2 ± 1.2 | 4.2 | 0/10 | 0/10 | immunological properties almost similar to those of muramyldipeptide | no antitumor activity | no adjuvant activity | – | – | – | – | – | – | –
6-O-mycomycoloyl-N-acetylmuramyl-L-alanyl-D-isoglutamine [Myco-L-Ala-D-isoGln] | – | – | 69.7 | – | 10/10 | – | – | – | 22.8 ± 0.6 mm and 12.8 ± 1.6 mm | 20.9 ± 0.8 mm and 17.1 ± 0.5 mm | 3.9 | – | – | – | –
6-O-nocardomycoloyl-N-acetylmuramyl-L-alanyl-D-isoglutamine [Nocardo-L-Ala-D-isoGln] | – | – | 76.9 ± 3.2 | 5/10 | – | – | – | – | – | – | 21.0 ± 7.6 | 24.5 ± 0.7 | 23.0 ± 1.5 | – | –
6-O-mycomycoloyl-N-acetylmuramyl-L-ser-D-isoglutamine [Myco-L-Ser-D-isoGln] | – | – | 30.4 ± 14.0 | – | 10/10 | – | – | – | 18.0 ± 0.6 mm | 15.0 ± 0.5 mm | 21.8 ± 15.2 | – | – | – | –
6-O-mycomycoloyl-N-acetylmuramyl-glycyl-D-isoglutamine [Myco-Gly-D-isoGln] | – | – | 77.0 ± 4.0 | – | 7/10 | – | – | – | 2.7 ± 0.7 mm | 15.3 ± 0.6 mm | 39.3 ± 3.2 | – | – | – | –
6-O-corynomycoloyl-N-acetylmuramyl-L-alanyl-D-isoglutamine [Coryno-L-Ala-D-isoGln] | – | – | 28.8 ± 14.4 | 6/10 | – | – | – | – | – | – | 16.1 ± 5.0 | – | – | 21.2 ± 1.9 | 22.0 ± 0.6
